Laboratory results reported in US12668599B2, “Heterobifunctional compounds and methods of treating disease” (Halda Therapeutics OpCo, Inc., priority 2023, dated 2026).
Where two headings read alike, the source gives them in different places.

Columns and labels:
[1] = tested on: T-Rex 293 cell line SC3 cells having increased expression of androgen receptor protein due to exposure to doxycycline; assay: Cellular growth inhibition, T-Rex 293 SC3 cells with doxycycline-induced androgen receptor (CellTiter-Glo 2.0, 72 hours); type: cell-based; conditions: for Ratio of GI50's: GI50 of the top compound in the pair divided by GI50 of the lower compound, T-Rex 293 SC3 cells with doxycycline-induced androgen receptor; for GI50: T-Rex 293 SC3 cells with 10 ng/ml doxycycline (increased androgen receptor expression), 72 hours, CellTiter-Glo 2.0
[2] = tested on: T-Rex 293 cell line SC3 cells lacking increased expression of androgen receptor protein; assay: Cellular growth inhibition, T-Rex 293 SC3 cells without doxycycline (CellTiter-Glo 2.0, 72 hours); type: cell-based; conditions: T-Rex 293 SC3 cells not exposed to doxycycline (no increased androgen receptor expression)
VCaP cells = assay: Cellular growth inhibition assay for VCaP cells (CellTiter-Glo 2.0, 72 hours); type: cell-based, human; conditions: for Ratio of GI50's: GI50 of the top compound in the pair divided by GI50 of the lower compound; for GI50: CellTiter-Glo 2.0
T47D cells = assay: Cellular growth inhibition assay for T47D cells (CellTiter-Glo 2.0, 72 hours); type: cell-based, human
Method: Exemplary compounds were tested for ability to inhibit the proliferation of T47D cells. T47D cells are a commercially available human breast cancer cell line.
T47D cells were purchased from American Type Cell Culture (ATCC Cat #HTB-133) and then seeded on poly-D-lysine coated, black clear-bottom 384-well plates at 3000/well in 25 μL Dulbecco's Modified Eagle Medium (DMEM) supplemented with 10% w/w Fetal bovine serum (FBS), 0.2 units/mL recombinant human insulin (Gibco Cat #12585014), and 1% w/w Pen-Strep. Pen-Strep is a commercially available mixture of penicillin G and streptomycin, which is used in mammalian cell culture media to prevent bacterial contamination. Dulbecco's Modified Eagle Medium (DMEM) supplemented with 10% w/w fetal bovine serum (FBS), 0.2 units/mL recombinant human insulin, and 1% w/w Pen-Strep is herein referred to as Treatment Medium. Following seeding of cells in the plates, the plates were spun at 300×g for 30 seconds, then equilibrated to room temperature for 30 minutes, and then deposited in a humidified tissue culture incubator maintained at 37° C. with 5% CO2.
At 24 hours after seeding of the cells, dilutions of test compound were prepared in DMSO and dissolved in Treatment Medium, to achieve a final DMSO concentration of 0.5% w/w, thereby providing the Test Compound Solution. A 25 μL aliquot of the Test Compound Solution was added to cells in the well plates. An equal volume of a solution containing DMSO and Treatment Medium was used as a negative control. Following treatment of cells with Test Compound Solution or said equal volume of a solution containing DMSO and Treatment Medium, the plates were spun at 300×g for 30 seconds, and then left in an incubator for 72 hours.
At the end of the treatment duration, cell viability was quantified with CellTiter-Glo 2.0 reagent (Promega Cat #G9243). For this purpose, plates were equilibrated to room temperature for 30 minutes, and then 25 μL of CellTiter-Glo 2.0 reagent was added to cells in the plate wells. Plates were then agitated on a shaker for two minutes at 500 rpm and subsequently incubated at room temperature for 10 minutes. Following incubation, the plates were spun at 3000×g for 30 seconds, then sealed with an optical adhesive cover, and luminescence readings were measured with an En Vision Plate Reader (Perkin Elmer).
Data was normalized using zero luminescence for baseline. A four-parameter non-linear regression curve fit was applied to dose-response data in GraphPad Prism data analysis software to determine the half-maximal growth inhibitory concentration (GI50) for each test compound.

Q: For `COc1cc(O[C@H]2C(C)(C)[C@H](NC(=O)c3cnc(N4CCC5(CC4)CC(Cc4ccc(C6=N[C@@H](Cc7ncco7)c7nnc(C)n7-c7sc(C)c(C)c76)cc4)C5)nc3)C2(C)C)ccc1C#N` [II-10, N-[3-(4-cyano-3-methoxy-phenoxy)-2,2,4,4-tetramethyl-cyclobutyl]-2-[2-[[4-[(9S)-4,5,13-trimethyl-9-(oxazol-2-ylmethyl)-3-thia-1,8,11,12-tetrazatricyclo[8.3.0.0^2,6]trideca-2 (6),4,7,10,12-pentaen-7-yl]phenyl]methyl]-7-azaspiro[3.5]nonan-7-yl]pyrimidine-5-carboxamide], which “Ratio of GI50's” value [1] is on record?
A: 1

Q: What about the GI50 [1] of the same compound?
A: < 0.5 µM

Q: And the GI50 ([2]; 72 h)?
A: 0.5 to 1.5 µM

Q: And the “Ratio of GI50's” value (VCaP cells)?
A: 1

Q: And the GI50 (VCaP cells; Homo sapiens, VCaP, 72 h)?
A: < 0.5 µM

Q: And the GI50 (T47D cells; Homo sapiens, T47D, 72 h)?
A: < 0.5 µM

Q: With `COc1cc(O[C@H]2CC[C@H](NC(=O)c3ccc(N4CCC5(CN(c6ccc(C7=N[C@@H](C)c8nnc(C)n8-c8sc(C)c(C)c87)cc6)CC5(F)F)C4)nn3)CC2)ccc1C#N` (stereo partly drawn) [Compound I-103] as the compound, how does the GI50 [1] read?
A: < 0.5 µM

Q: What about the GI50 ([2]; 72 h) of the same compound?
A: < 0.5 µM

Q: And the GI50 (VCaP cells; Homo sapiens, VCaP, 72 h)?
A: 0.5 to 1.5 µM

Q: What about the GI50 (T47D cells) of the same compound?
A: 0.5 to 1.5 µM

Q: Which GI50 (T47D cells; Homo sapiens, T47D, 72 h) does the source give for `COc1cc(O[C@H]2C(C)(C)[C@H](NC(=O)c3ccc(N4CCC5(CC4)CC(Cc4ccc(C6=N[C@@H](C)c7nnc(C)n7-c7sc(C)c(C)c76)cc4)C5)nc3)C2(C)C)ccc1C#N` [II-6] here?
A: < 0.5 µM

Q: Which GI50 (T47D cells; Homo sapiens, T47D, 72 h) does the source give for `COc1cc(O[C@H]2C(C)(C)[C@H](NC(=O)c3cnc(N4CCC(CC5CN(c6ccc(C7=N[C@@H](C)c8nnc(C)n8-c8sc(C)c(C)c87)cc6)C5)CC4)nc3)C2(C)C)ccc1C#N` [II-3] here?
A: < 0.5 µM

Q: `COc1cc(O[C@H]2C(C)(C)[C@H](NC(=O)c3cnc(N4CCC5(CCC(c6ccc(C7=N[C@@H](C)c8nnc(C)n8-c8sc(C)c(C)c87)cc6)CC5)C4)nc3)C2(C)C)ccc1C#N` [II-8] was tested. Which GI50 (T47D cells) did it give?
A: 0.5 to 1.5 µM

Q: For `Cc1sc2c(c1C)C(c1ccc(OC3CC4(CCN(c5ncc(C(=O)N[C@H]6C(C)(C)[C@H](Oc7ccc(C#N)c(OC(F)(F)F)c7)C6(C)C)cn5)CC4)C3)cc1)=N[C@@H](Cc1ncco1)c1nnc(C)n1-2` [II-2], which GI50 (T47D cells; Homo sapiens, T47D, 72 h) is on record?
A: < 0.5 µM

Q: `COc1cc(O[C@H]2CC[C@H](NC(=O)c3ccc(N4CCC5(CCN(c6ccc(C7=N[C@@H](C)c8nnc(C)n8-c8sc(C)c(C)c87)cc6)CC5)C4)nc3)CC2)ccc1C#N` [Compound I-38] was tested. Which GI50 [1] did it give?
A: < 0.5 µM

Q: And the GI50 ([2]; 72 h)?
A: < 0.5 µM

Q: What about the GI50 (VCaP cells; Homo sapiens, VCaP, 72 h) of the same compound?
A: < 0.5 µM

Q: With `COc1cc(O[C@H]2CC[C@H](NC(=O)c3ccc(N4CCC5(CCN(c6ccc(C7=N[C@@H](C)c8nnc(C)n8-c8sc(C)c(C)c87)cc6C)CC5)C4)nn3)CC2)ccc1C#N` [Compound I-46, N-[4-(4-cyano-3-methoxy-phenoxy)cyclohexyl]-6-[8-[2-methyl-4-[(9S)-4,5,9,13-tetramethyl-3-thia-1,8,11,12-tetrazatricyclo[8.3.0.0^2,6]trideca-2 (6),4,7,10,12-pentaen-7-yl]phenyl]-2,8-diazaspiro[4.5]decan-2-yl]pyridazine-3-carboxamide] as the compound, how does the GI50 [1] read?
A: < 0.5 µM

Q: And the GI50 ([2]; 72 h)?
A: < 0.5 µM

Q: What about the GI50 (VCaP cells; Homo sapiens, VCaP, 72 h) of the same compound?
A: < 0.5 µM

Q: `COc1cc(O[C@H]2CC[C@H](NC(=O)c3ccc(N4CCC5(CCN(c6ccc(C7=N[C@@H](C)c8nnc(C)n8-c8sc(C)c(C)c87)cc6)CC5)C4)nn3)CC2)ccc1C#N` [Compound I-17, N-[4-(4-cyano-3-methoxy-phenoxy)cyclohexyl]-6-[8-[4-[(9S)-4,5,9,13-tetramethyl-3-thia-1,8,11,12-tetrazatricyclo[8.3.0.0^2,6]trideca-2 (6),4,7,10,12-pentaen-7-yl]phenyl]-2,8-diazaspiro[4.5]decan-2-yl]pyridazine-3-carboxamide] was tested. Which “Ratio of GI50's” value [1] did it give?
A: 1

Q: And the GI50 [1]?
A: < 0.5 µM

Q: What about the GI50 [2] of the same compound?
A: < 0.5 µM

Q: And the GI50 (VCaP cells; 72 hours)?
A: < 0.5 µM

Q: And the “Ratio of GI50's” value (VCaP cells)?
A: 1

Q: Which “Ratio of GI50's” value [1] does the source give for `COc1cc(O[C@H]2CC[C@H](NC(=O)c3ccc(N4CCC5(CC4)CC(Oc4ccc(C6=N[C@@H](Cc7ncco7)c7nnc(C)n7-c7sc(C)c(C)c76)cc4)C5)nn3)CC2)ccc1C#N` [Compound I-83, N-[4-(4-cyano-3-methoxy-phenoxy)cyclohexyl]-6-[2-[4-[(9S)-4,5,13-trimethyl-9-(oxazol-2-ylmethyl)-3-thia-1,8,11,12-tetrazatricyclo[8.3.0.0^2,6]trideca-2 (6),4,7,10,12-pentaen-7-yl]phenoxy]-7-azaspiro[3.5]nonan-7-yl]pyridazine-3-carboxamide] here?
A: 1

Q: What about the GI50 [1] of the same compound?
A: < 0.5 µM

Q: And the GI50 ([2]; 72 h)?
A: < 0.5 µM

Q: And the “Ratio of GI50's” value (VCaP cells)?
A: 1

Q: And the GI50 (VCaP cells; Homo sapiens, VCaP, 72 h)?
A: < 0.5 µM

Q: For `COc1cc(O[C@H]2CC[C@H](NC(=O)c3ccc(N4CCC5(CCN(c6ccc(C7=N[C@@H](C)c8nnc(C)n8-c8sc(C)c(C)c87)cc6)C5)CC4)nn3)CC2)ccc1C#N` [Compound I-23], which GI50 [1] is on record?
A: > 3 µM

Q: And the GI50 ([2]; 72 h)?
A: < 0.5 µM

Q: And the GI50 (VCaP cells; Homo sapiens, VCaP, 72 h)?
A: > 3 µM

Q: With `COc1cc(O[C@H]2CC[C@H](NC(=O)c3ccc(N4CCC5(CCC(Oc6ccc(C7=N[C@@H](C)c8nnc(C)n8-c8sc(C)c(C)c87)cc6)C5)C4)nn3)CC2)ccc1C#N` (single isomer, unassigned) [Compound I-49] as the compound, how does the GI50 [1] read?
A: < 0.5 µM

Q: And the GI50 ([2]; 72 h)?
A: < 0.5 µM

Q: And the GI50 (VCaP cells; Homo sapiens, VCaP, 72 h)?
A: < 0.5 µM

Q: For `COc1cc(O[C@H]2CC[C@H](NC(=O)c3ccc(N4CCC5(CCC(c6ccc(C7=N[C@@H](C)c8nnc(C)n8-c8sc(C)c(C)c87)cc6Cl)CC5)C4)nn3)CC2)ccc1C#N` (stereo partly drawn) [Compound I-85], which GI50 [1] is on record?
A: < 0.5 µM

Q: And the GI50 [2]?
A: > 3 µM

Q: And the GI50 (VCaP cells; 72 hours)?
A: < 0.5 µM

Q: What does the source list for `COc1cc(O[C@H]2CC[C@H](NC(=O)c3ccc(N4CCC5(CCC(c6ccc(C7=N[C@@H](Cc8ncco8)c8nnc(C)n8-c8sc(C)c(C)c87)cc6)CC5)C4)nn3)CC2)ccc1C#N` (stereo partly drawn) [Compound I-100, N-((1r,4r)-4-(4-cyano-3-methoxyphenoxy)cyclohexyl)-6-(8-(4-((S)-2,3,9-trimethyl-6-(oxazol-2-ylmethyl)-6H-thieno[3,2-f][1,2,4]triazolo[4,3-a][1,4]diazepin-4-yl)phenyl)-2-azaspiro[4.5]decan-2-yl) pyridazine-3-carboxamide]?
A: GI50 [1]: < 0.5 µM; GI50 ([2]; 72 h): < 0.5 µM; GI50 (VCaP cells; Homo sapiens, VCaP, 72 h): < 0.5 µM

Q: With `CC[C@@H]1N=C(c2ccc(C#CC3CC4(C3)CN(c3ccc(C(=O)N[C@H]5CC[C@H](Oc6ccc(C#N)c(OC(F)(F)F)c6)CC5)nn3)C4)cc2)c2c(sc(C)c2C)-n2c(C)nnc21` [Compound I-6, N-[4-[4-cyano-3-(trifluoromethoxy)phenoxy]cyclohexyl]-6-[6-[2-[4-[(9S)-9-ethyl-4,5,13-trimethyl-3-thia-1,8,11,12-tetrazatricyclo[8.3.0.0^2,6]trideca-2 (6),4,7,10,12-pentaen-7-yl]phenyl]ethynyl]-2-azaspiro[3.3]heptan-2-yl]pyridazine-3-carboxamide] as the compound, how does the GI50 [1] read?
A: < 0.5 µM

Q: And the GI50 ([2]; 72 h)?
A: < 0.5 µM

Q: What about the GI50 (VCaP cells; Homo sapiens, VCaP, 72 h) of the same compound?
A: < 0.5 µM

Q: Which GI50 [1] does the source give for `COC[C@@H]1N=C(c2ccc(C3CCC4(CC3)CCN(c3ccc(C(=O)NC5CCC(Oc6ccc(C#N)c(OC)c6)CC5)nn3)C4)cc2)c2c(sc(C)c2C)-n2c(C)nnc21` (stereo partly drawn) [Compound I-27, N-[4-(4-cyano-3-methoxy-phenoxy)cyclohexyl]-6-[8-[4-[(9R)-9-(methoxymethyl)-4,5,13-trimethyl-3-thia-1,8,11,12-tetrazatricyclo[8.3.0.0^2,6]trideca-2 (6),4,7,10,12-pentaen-7-yl]phenyl]-2-azaspiro[4.5]decan-2-yl]pyridazine-3-carboxamide] here?
A: < 0.5 µM

Q: And the GI50 ([2]; 72 h)?
A: < 0.5 µM

Q: And the GI50 (VCaP cells; Homo sapiens, VCaP, 72 h)?
A: < 0.5 µM

Q: What does the source list for `COc1cc(O[C@H]2CC[C@H](NC(=O)c3ccc(N4CCC5(CCN(c6ccc(C7=N[C@@H](C)c8nnc(C)n8-c8sc(C)c(C)c87)c(Cl)c6)CC5)C4)nn3)CC2)ccc1C#N` [Compound I-74]?
A: GI50 [1]: < 0.5 µM; GI50 ([2]; 72 h): > 3 µM; GI50 (VCaP cells; Homo sapiens, VCaP, 72 h): < 0.5 µM

Q: How did the GI50 [1] turn out when `COc1cc(O[C@H]2CC[C@H](NC(=O)c3ccc(N4CCC5(CCN(c6ccc(C7=N[C@@H](C)c8nnc(C)n8-c8sc(C)c(C)c87)c(OC)c6)CC5)C4)nn3)CC2)ccc1C#N` [Compound I-75] was run?
A: < 0.5 µM

Q: And the GI50 ([2]; 72 h)?
A: < 0.5 µM

Q: What about the GI50 (VCaP cells; Homo sapiens, VCaP, 72 h) of the same compound?
A: < 0.5 µM
